# Measurements reported in publication PMC4046051, “Two M-T hook residues greatly improve the antiviral activity and resistance profile of the HIV-1 fusion inhibitor SC29EK” (Retrovirology, 2014).
# Peptide text beside a SMILES is read from it.
# Assays:
# HIV-1 NL4-3 Q40H = assay: Inhibition of T20-resistant HIV-1 variants: Q40H; type: cell-based; conditions: for IC50: mean ± SD of three independent experiments, SD
# Procedure: (§1) The inhibition of peptides on the HIV-1 entry was determined by single-cycle infection assay as described previously. Briefly, HIV-1 pseudovirus was generated by cotransfecting 293 T cells with an Env-expressing plasmid and a backbone plasmid pSG3^Δenv that encodes Env-defective, luciferase-expressing HIV-1 genome. The supernatants were harvested and filtered 48 h after transfection and 50% tissue culture infectious dose (TCID50) was determined in TZM-bl cells. The peptides were prepared with 3-fold dilutions and mixed with 100 TCID50 viruses and then incubated 1 h at room temperature. The mixture was added to TZM-bl cells (10^4/well) and incubated 48 h at 37°C. The luciferase activity was measured using luciferase assay reagents and a Luminescence Counter (Promega).
# HIV-1 NL4-3 V38A/N42T = assay: Inhibition of T20-resistant HIV-1 variants: V38A/N42T; type: cell-based; conditions: for IC50: mean ± SD of three independent experiments, SD
# Procedure: as §1
# HIV-1 NL4-3 D36S/V38M = assay: Inhibition of T20-resistant HIV-1 variants: D36S/V38M; type: cell-based; conditions: for IC50: mean ± SD of three independent experiments, SD
# Procedure: as §1
# [1] = biological target: T1, NHR peptide N36 (HIV-1 gp41) (Human immunodeficiency virus type 1 group M subtype B, UniProt P04578); assay: CD thermal denaturation of 6-HB formed by CHR peptide and N36; type: binding; conditions: CHR peptide + N36, each 10 μM in PBS pH 7.2; CD at 222 nm, 20-98°C
# T1 construct: made in house; host or cells: chemical synthesis (solid-phase FMOC), no expression host
# Procedure: (§2) CD spectroscopy was performed according to our protocols described previously. […] The final concentration of each peptide was 10 μM in PBS buffer (pH 7.2). The CD spectra were acquired on a Jasco spectropolarimeter (model J-815) using a 1 nm bandwidth with a 1 nm step resolution from 195 to 260 nm at room temperature. The spectra were corrected by subtraction of a blank corresponding to the solvent. Data were averaged over three accumulations. The α-helical content was calculated from the CD signal by dividing the mean residue ellipticity [θ] at 222 nm by the value expected for 100% helix formation (-33,000 degrees.cm^2.dmol^-1). The thermal denaturation experiment was performed by monitoring the change in ellipticity [θ] at 222 nm at the increasing temperature (20–98°C) using temperature controller. The temperature was increased at a rate of 1.2°C per min; data were acquired at a 1 nm bandwidth at 222 nm at a frequency of 0.25 Hz. The melting curve was smoothened, and the midpoint of the thermal unfolding transition (Tm) values were taken as the maximum of the derivative d [θ]222/dT. The Tm value was detected at a peptide concentration of 10 μM in PBS buffer.
# [2] = biological target: T2, six-helical bundle (6-HB) of N36 and biotinylated-C34 (Human immunodeficiency virus type 1 group M subtype B, UniProt P04578); assay: Inhibition of 6-HB formation, NC-1 capture ELISA; type: biochemical, HIV-1; conditions: for IC50: biotinylated-C34 0.1 μM, N36 0.1 μM, 30 min room temperature, 3 independent experiments
# T2 construct: made in house; host or cells: chemical synthesis (solid-phase FMOC), no expression host
# Procedure: The 6-HB core-specific monoclonal antibody NC-1 was obtained from Dr. Shibo Jiang in the New York Blood Center (New York, NY) through the ARRRP, Division of AIDS, NIAID, National Institute of Health. The inhibitory activity of SC29EK or MT-SC29EK on the 6-HB formation was measured by a modified ELISA as previously described. Briefly, a 96-well polystyrene plate was coated with 2 μg/ml NC-1 in 0.1 M Tris buffer (pH 8.8). A tested peptide at graded concentrations was mixed with the biotinylated-C34 (0.1 μM) and incubated with N36 (0.1 μM) at room temperature for 30 min. The mixture was then added to the NC-1-coated plate, followed by incubation for 30 min and washing with a washing buffer (PBS containing 0.1% Tween 20) three times. Then horseradish peroxidase (HRP)-labeled streptavidin (Invitrogen) and the substrate 3,3,5,5- tetramethylbenzidine (Sigma) were sequentially added. Absorbance at 450 nm (A450) was measured using an ELISA reader.
# wild-type HIV-1NL4-3 = type: cell-based; conditions: for IC50: wild-type HIV-1NL4-3, 100 TCID50, TZM-bl cells, two days, luciferase, mean ± SD of three independent experiments, SD, read-out: IC50 Replication
# Procedure: The inhibition of peptides on HIV-1 replication was determined by a molecular cloned wild-type HIV-1NL4–3. In brief, the virus stock was harvested and quantified 48 h post-transfection. 100 TCID50 viruses were used to infect TZM-bl cells in the presence or absence of serially diluted peptides. Two days post-infection, the cells were harvested and lysed in reporter lysis buffer and the luciferase activity was measured as described above.
# [3] = biological target: T1, NHR peptide N36 (HIV-1 gp41); assay: Isothermal titration calorimetry (ITC) with N36; type: binding; conditions: 25°C; for Kd: 1 mM N36 injected into 100 μM peptide, read-out: binding constant (K) (converted)
# Procedure: ITC assay was performed using an ITC200 Microcalorimeter instrument (MicroCal, USA) as described previously. In brief, 1 mM N36 dissolved in ddH20 was injected into the chamber containing 100 μM SC29EK or MT-SC29EK. The experiments were carried out at 25°C. The time between injections was 240 s and the stirring speed was 500 rpm. The heats of dilution were determined in control experiments by injecting N36 into ddH20 and subtracted from the heats produced in the corresponding peptide-peptide binding experiments. Data acquisition and analysis were performed using MicroCal Origin software (version 7.0).
# HIV-1 NL4-3 N43K = assay: Inhibition of T20-resistant HIV-1 variants: N43K; type: cell-based; conditions: for IC50: mean ± SD of three independent experiments
# Procedure: as §1
# HIV-1 NL4-3 I37T/N43K = assay: Inhibition of T20-resistant HIV-1 variants: I37T/N43K; type: cell-based; conditions: for IC50: mean ± SD of three independent experiments
# Procedure: as §1
# HIV-1 NL4-3 V38M = assay: Inhibition of T20-resistant HIV-1 variants: V38M; type: cell-based; conditions: for IC50: mean ± SD of three independent experiments, SD
# Procedure: as §1
# HIV-1NL4-3 pseudovirus = type: cell-based; conditions: for IC50: 100 TCID50, TZM-bl cells, 48 h, luciferase, mean ± SD of three independent experiments, SD, read-out: IC50 Entry
# Procedure: as §1
# HIV-1 NL4-3 V38A = assay: Inhibition of T20-resistant HIV-1 variants: V38A; type: cell-based; conditions: for IC50: mean ± SD of three independent experiments, SD
# Procedure: as §1
# HIV-1 NL4-3 I37T = assay: Inhibition of T20-resistant HIV-1 variants: I37T; type: cell-based; conditions: for IC50: mean ± SD of three independent experiments, SD
# Procedure: as §1
# HIV-1 NL4-3 WT = assay: Inhibition of T20-resistant HIV-1 variants panel: WT; type: cell-based; conditions: for IC50: mean ± SD of three independent experiments, SD
# Procedure: as §1
# N36 mutant V38A = assay: CD thermal denaturation of 6-HB formed with N36 mutant V38A; type: binding, HIV-1; conditions: CHR peptide + N36 V38A mutant, each 10 μM in PBS
# Procedure: as §2
# N36 mutant I37T/N43K = biological target: T3, N36 mutant I37T/N43K (Human immunodeficiency virus type 1 group M subtype B, UniProt P04578, I548T/N554K); assay: CD thermal denaturation of 6-HB formed with N36 mutant I37T/N43K; type: binding, HIV-1; conditions: CHR peptide + N36 I37T/N43K mutant, each 10 μM in PBS
# T3 construct: A panel of N36-based peptides carrying a single (I37T, V38A, Q40H, N43K) or double (I37T/N43K and V38A/N42T) NHR mutations; made in house; host or cells: chemical synthesis (solid-phase FMOC), no expression host
# Procedure: as §2
# [4] = tested on: molecular clone of HIV-1NL4-3; assay: In vitro selection of HIV-1 resistance in MT-4 cells; type: cell-based; conditions: 1.5-2 fold escalating concentrations, after 35 generations of passage over 7 months
# Procedure: The in vitro selection of HIV-1 resistance to peptide inhibitors was performed as described previously. Briefly, MT-4 cells were seeded at 1 × 10^4 in RPMI 1640 medium containing 10% fetal bovine serum on 12-well plates. The molecular clone of HIV-1NL4–3 was used to infect the cells in the presence or absence of diluted peptide inhibitors (SC29EK, MT-SC29EK, SC22EK and MT-SC22EK). The cells were incubated at 37°C with 5% CO2 until an extensive cytopathic effect was observed. The culture supernatants were harvested and used for next passage on fresh MT-4 cells with 1.5-2 fold increasing concentrations of peptide. Cells and supernatant were harvested at regular time points and stored at -80°C.
Structure (SMILES),n-fold relative to the IC50 of the wild-type (WT) virus (HIV-1 NL4-3 Q40H),IC50 (HIV-1 NL4-3 Q40H) [nM],n-fold relative to the IC50 of the wild-type (WT) virus (HIV-1 NL4-3 V38A/N42T),IC50 (HIV-1 NL4-3 V38A/N42T) [nM],n-fold relative to the IC50 of the wild-type (WT) virus (HIV-1 NL4-3 D36S/V38M),IC50 (HIV-1 NL4-3 D36S/V38M) [nM],Tm (midpoint of the thermal unfolding transition) of 6-HB [1] [°C],IC50 [2] [nM],IC50 (wild-type HIV-1NL4-3) [nM],Kd [3] [nM],n-fold relative to the IC50 of the wild-type (WT) virus (HIV-1 NL4-3 N43K),n-fold relative to the IC50 of the wild-type (WT) virus (HIV-1 NL4-3 I37T/N43K),n-fold relative to the IC50 of the wild-type (WT) virus (HIV-1 NL4-3 V38M),IC50 (HIV-1 NL4-3 V38M) [nM],IC50 (HIV-1NL4-3 pseudovirus) [nM],n-fold relative to the IC50 of the wild-type (WT) virus (HIV-1 NL4-3 V38A),IC50 (HIV-1 NL4-3 V38A) [nM],n-fold relative to the IC50 of the wild-type (WT) virus (HIV-1 NL4-3 I37T),IC50 (HIV-1 NL4-3 I37T) [nM],n-fold relative to the IC50 of the wild-type (WT) virus (HIV-1 NL4-3 WT),further results
CC[C@H](C)[C@H](NC(=O)[C@H](CC(C)C)NC(=O)[C@H](CCC(=O)O)NC(=O)[C@H](CCC(=O)O)NC(=O)[C@@H](NC(=O)[C@H](CCCCN)NC(=O)[C@H](CCCCN)NC(=O)[C@@H](NC(=O)[C@H](Cc1ccc(O)cc1)NC(=O)[C@H](CCC(=O)O)NC(=O)[C@H](CCC(=O)O)NC(=O)[C@@H](NC(=O)[C@H](CCCCN)NC(=O)[C@H](CCCCN)NC(=O)[C@H](CC(=O)O)NC(=O)[C@H](Cc1c[nH]c2ccccc12)NC(=O)[C@H](CCC(=O)O)NC(=O)[C@H](CCC(=O)O)NC(=O)[C@H](Cc1c[nH]c2ccccc12)NC(=O)[C@@H](NC(=O)[C@H](CCSC)NC(C)=O)[C@@H](C)O)[C@@H](C)CC)[C@@H](C)O)[C@@H](C)CC)C(=O)N[C@@H](CCCCN)C(=O)N[C@@H](CCCCN)C(=O)N[C@@H](CO)C(=O)N[C@@H](CCC(=O)O)C(=O)N[C@@H](CCC(=O)O)C(=O)N[C@@H](CCC(N)=O)C(=O)N[C@@H](CCC(N)=O)C(=O)N[C@@H](CCCCN)C(=O)N[C@@H](CCCCN)C(=O)N[C@@H](CC(N)=O)C(N)=O [MT-SC29EK] (Ac-MTWEEWDKKIEEYTKKIEELIKKSEEQQKKN-NH2),1.3,0.8 ± 0.1,1,0.6,2,1.2,79.1,600,0.2,15.5,12,35.3,2.8,1.7,0.7,1,0.6 ± 0.1,1.3,0.8 ± 0.2,1,"fold increase of 6-HB blocking potency over SC29EK [2]: 23 fold; fold increase of potency over SC29EK, replication (wild-type HIV-1NL4-3; wild-type HIV-1NL4-3): 4.5 fold; fold increase of K value compared to SC29EK [3]: 4.7 fold; IC50 (HIV-1 NL4-3 N43K; SD): 7.2 ± 0.2 nM; IC50 (HIV-1 NL4-3 I37T/N43K; SD): 21.2 ± 4.4 nM; fold increased potency over SC29EK, entry (HIV-1NL4-3 pseudovirus): 3.1 fold; IC50 (HIV-1 NL4-3 WT): 0.6 ± 0.1 nM"
CC[C@H](C)[C@H](NC(=O)[C@H](CC(C)C)NC(=O)[C@H](CCC(=O)O)NC(=O)[C@H](CCC(=O)O)NC(=O)[C@@H](NC(=O)[C@H](CCCCN)NC(=O)[C@H](CCCCN)NC(=O)[C@@H](NC(=O)[C@H](Cc1ccc(O)cc1)NC(=O)[C@H](CCC(=O)O)NC(=O)[C@H](CCC(=O)O)NC(=O)[C@@H](NC(=O)[C@H](CCCCN)NC(=O)[C@H](CCCCN)NC(=O)[C@H](CC(=O)O)NC(=O)[C@H](Cc1c[nH]c2ccccc12)NC(=O)[C@H](CCC(=O)O)NC(=O)[C@H](CCC(=O)O)NC(=O)[C@H](Cc1c[nH]c2ccccc12)NC(C)=O)[C@@H](C)CC)[C@@H](C)O)[C@@H](C)CC)C(=O)N[C@@H](CCCCN)C(=O)N[C@@H](CCCCN)C(=O)N[C@@H](CO)C(=O)N[C@@H](CCC(=O)O)C(=O)N[C@@H](CCC(=O)O)C(=O)N[C@@H](CCC(N)=O)C(=O)N[C@@H](CCC(N)=O)C(=O)N[C@@H](CCCCN)C(=O)N[C@@H](CCCCN)C(=O)N[C@@H](CC(N)=O)C(N)=O [SC29EK] (Ac-WEEWDKKIEEYTKKIEELIKKSEEQQKKN-NH2),46.6,83.8 ± 10.8,20.9,37.7 ± 6.4,6.5,11.7 ± 0.7,69.1,14000,0.9 ± 0.2,71.9,>138.9,>138.9,8.4,15.1 ± 1.8,2.2 ± 0.3,9,16.2 ± 1.9,8.3,15 ± 0.3,1,"Tm of 6-HB (N36 mutant V38A): 62.1 °C; IC50 (HIV-1 NL4-3 N43K): > 250 nM; IC50 (HIV-1 NL4-3 I37T/N43K): > 250 nM; Tm of 6-HB (N36 mutant I37T/N43K): 61.1 °C; peptide concentration reached during in vitro selection of resistant virus [4]: 2,650 nM; IC50 (HIV-1 NL4-3 WT): 1.8 ± 0.2 nM"
